The data set in a line: activity coefficient (dimensionless); of the first substance listed, at infinite dilution; xn = mol fraction of the nth substance listed. Conditions: 101 kPa, Liquid, Chromatography, x1 = 0.

For 20 compounds, activity coefficient results are on record in the NIST ThermoML archive (doi:10.1016/j.jct.2013.01.005).

± gives the expanded uncertainty stated by the source.

On to `CCCCO` [butan-1-ol] + CCCCCC[N+]1(C)CCCCC1.O=S(=O)([N-]S(=O)(=O)C(F)(F)F)C(F)(F)F, for which the activity coefficient reads like this: (308.15 K) 2.4 ± 0.16; (318.15 K) 2.13 ± 0.14; (328.15 K) 1.93 ± 0.13; (338.15 K) 1.76 ± 0.12; (348.15 K) 1.64 ± 0.11; (358.15 K) 1.52 ± 0.1.
`C=CCCCC` [hex-1-ene] + CCCCC[N+]1(C)CCCCC1.O=S(=O)([N-]S(=O)(=O)C(F)(F)F)C(F)(F)F: the activity coefficient amounted to 5.52 ± 0.38 (308.15 K); 5.31 ± 0.36 (318.15 K); 5.13 ± 0.35 (328.15 K); 5 ± 0.34 (338.15 K); 4.92 ± 0.34 (348.15 K); 4.8 ± 0.33 (358.15 K).
Regarding `C1CCCCCCC1` [cyclooctane] + CCCCCC[N+]1(C)CCCCC1.O=S(=O)([N-]S(=O)(=O)C(F)(F)F)C(F)(F)F, the activity coefficient reads like this: (308.15 K) 7.57 ± 0.52; (318.15 K) 7.36 ± 0.5; (328.15 K) 7.15 ± 0.49; (338.15 K) 6.87 ± 0.47; (348.15 K) 6.75 ± 0.46; (358.15 K) 6.53 ± 0.45.
Regarding `C1CCOC1` [tetrahydrofuran] + CCCCC[N+]1(C)CCCCC1.O=S(=O)([N-]S(=O)(=O)C(F)(F)F)C(F)(F)F, the activity coefficient (308.15 K) was 0.617 ± 0.043; the activity coefficient (318.15 K) is 0.627 ± 0.043; the activity coefficient (328.15 K) amounted to 0.641 ± 0.044; the activity coefficient (338.15 K) was determined as 0.653 ± 0.045; the activity coefficient (348.15 K) is 0.667 ± 0.045; the activity coefficient (358.15 K) amounted to 0.682 ± 0.046.
Regarding `C#CCCCC` [1-hexyne] + CCCCC[N+]1(C)CCCCC1.O=S(=O)([N-]S(=O)(=O)C(F)(F)F)C(F)(F)F, the activity coefficient (308.15 K) was found to be 2.09 ± 0.14; the activity coefficient (318.15 K) worked out at 2.12 ± 0.14; the activity coefficient (328.15 K) turned out to be 2.14 ± 0.15; the activity coefficient (338.15 K) was determined as 2.18 ± 0.15; the activity coefficient (348.15 K) stood at 2.22 ± 0.15; the activity coefficient (358.15 K) turned out to be 2.25 ± 0.15.
`C#CCCCCC` [1-heptyne] + CCCCCC[N+]1(C)CCCCC1.O=S(=O)([N-]S(=O)(=O)C(F)(F)F)C(F)(F)F: the activity coefficient amounted to 2.39 ± 0.16 (308.15 K); 2.43 ± 0.17 (318.15 K); 2.46 ± 0.17 (328.15 K); 2.49 ± 0.17 (338.15 K); 2.52 ± 0.17 (348.15 K); 2.55 ± 0.17 (358.15 K).
Regarding `C#CCCCCCC` [1-octyne] + CCCCCC[N+]1(C)CCCCC1.O=S(=O)([N-]S(=O)(=O)C(F)(F)F)C(F)(F)F, the activity coefficient is, setting by setting: (308.15 K) 3.1 ± 0.21; (318.15 K) 3.14 ± 0.21; (328.15 K) 3.19 ± 0.22; (338.15 K) 3.21 ± 0.22; (348.15 K) 3.24 ± 0.22; (358.15 K) 3.26 ± 0.22.
With `CC(C)=O` [acetone] + CCCCC[N+]1(C)CCCCC1.O=S(=O)([N-]S(=O)(=O)C(F)(F)F)C(F)(F)F, the activity coefficient by setting is: (308.15 K) 0.398 ± 0.034; (318.15 K) 0.426 ± 0.035; (328.15 K) 0.435 ± 0.035; (338.15 K) 0.441 ± 0.035; (348.15 K) 0.456 ± 0.036; (358.15 K) 0.466 ± 0.036.
Take `CCCCCC` [hexane] + CCCCCC[N+]1(C)CCCCC1.O=S(=O)([N-]S(=O)(=O)C(F)(F)F)C(F)(F)F: the activity coefficient runs as follows: (308.15 K) 7.67 ± 0.52; (318.15 K) 7.4 ± 0.5; (328.15 K) 7.07 ± 0.48; (338.15 K) 6.85 ± 0.47; (348.15 K) 6.67 ± 0.45; (358.15 K) 6.37 ± 0.43.
For the compound `C=CCCCCC` [1-heptene] + CCCCCC[N+]1(C)CCCCC1.O=S(=O)([N-]S(=O)(=O)C(F)(F)F)C(F)(F)F, the activity coefficient is, setting by setting: (308.15 K) 5.89 ± 0.4; (318.15 K) 5.81 ± 0.4; (328.15 K) 5.69 ± 0.39; (338.15 K) 5.59 ± 0.38; (348.15 K) 5.45 ± 0.37; (358.15 K) 5.35 ± 0.36.
On to `C1CCCC1` [cyclopentane] + CCCCCC[N+]1(C)CCCCC1.O=S(=O)([N-]S(=O)(=O)C(F)(F)F)C(F)(F)F, for which the activity coefficient came to 3.72 ± 0.25 (308.15 K); 3.59 ± 0.24 (318.15 K); 3.43 ± 0.23 (328.15 K); 3.34 ± 0.23 (338.15 K); 3.24 ± 0.22 (348.15 K); 3.12 ± 0.21 (358.15 K).
In the case of `COC(C)(C)C` [2-methoxy-2-methylpropane] + CCCCCC[N+]1(C)CCCCC1.O=S(=O)([N-]S(=O)(=O)C(F)(F)F)C(F)(F)F, the activity coefficient came to 1.59 ± 0.11 (308.15 K); 1.63 ± 0.11 (318.15 K); 1.66 ± 0.11 (328.15 K); 1.7 ± 0.11 (338.15 K); 1.72 ± 0.12 (348.15 K); 1.76 ± 0.12 (358.15 K).
With `CCC(C)(C)OC` [2-methoxy-2-methylbutane] + CCCCCC[N+]1(C)CCCCC1.O=S(=O)([N-]S(=O)(=O)C(F)(F)F)C(F)(F)F, the activity coefficient (308.15 K) stood at 2.11 ± 0.14; the activity coefficient (318.15 K) amounted to 2.14 ± 0.15; the activity coefficient (328.15 K) came out at 2.18 ± 0.15; the activity coefficient (338.15 K) was found to be 2.2 ± 0.15; the activity coefficient (348.15 K) is 2.22 ± 0.15; the activity coefficient (358.15 K) was 2.25 ± 0.15.
In the case of `CCCCCC` [hexane] + CCCCC[N+]1(C)CCCCC1.O=S(=O)([N-]S(=O)(=O)C(F)(F)F)C(F)(F)F, the activity coefficient runs as follows: (308.15 K) 9.9 ± 0.68; (318.15 K) 9.5 ± 0.65; (328.15 K) 8.9 ± 0.61; (338.15 K) 8.45 ± 0.58; (348.15 K) 8.19 ± 0.56; (358.15 K) 7.92 ± 0.54.
In the case of `CC1CCCCC1` [methylcyclohexane] + CCCCC[N+]1(C)CCCCC1.O=S(=O)([N-]S(=O)(=O)C(F)(F)F)C(F)(F)F, the activity coefficient was determined as 7.8 ± 0.53 (308.15 K); 7.49 ± 0.51 (318.15 K); 7.16 ± 0.49 (328.15 K); 6.87 ± 0.47 (338.15 K); 6.64 ± 0.45 (348.15 K); 6.42 ± 0.44 (358.15 K).
With `CCCC(C)=O` [pentan-2-one] + CCCCCC[N+]1(C)CCCCC1.O=S(=O)([N-]S(=O)(=O)C(F)(F)F)C(F)(F)F, the activity coefficient runs as follows: (308.15 K) 0.573 ± 0.041; (318.15 K) 0.581 ± 0.041; (328.15 K) 0.596 ± 0.042; (338.15 K) 0.613 ± 0.043; (348.15 K) 0.632 ± 0.044; (358.15 K) 0.646 ± 0.044.
As for `CCC(C)(C)C` [2,2-dimethylbutane] + CCCCC[N+]1(C)CCCCC1.O=S(=O)([N-]S(=O)(=O)C(F)(F)F)C(F)(F)F, the activity coefficient stood at 7.94 ± 0.54 (318.15 K); 7.7 ± 0.53 (328.15 K); 7.34 ± 0.5 (338.15 K); 7.04 ± 0.48 (348.15 K); 6.86 ± 0.47 (358.15 K).
In the case of `C1CCCCCC1` [cycloheptane] + CCCCC[N+]1(C)CCCCC1.O=S(=O)([N-]S(=O)(=O)C(F)(F)F)C(F)(F)F, the activity coefficient was found to be 7.97 ± 0.54 (308.15 K); 7.49 ± 0.51 (318.15 K); 7.13 ± 0.49 (328.15 K); 6.82 ± 0.46 (338.15 K); 6.54 ± 0.45 (348.15 K); 6.26 ± 0.43 (358.15 K).
Take `C1CCCCCC1` [cycloheptane] + CCCCCC[N+]1(C)CCCCC1.O=S(=O)([N-]S(=O)(=O)C(F)(F)F)C(F)(F)F: the activity coefficient (308.15 K) was 6.23 ± 0.42; the activity coefficient (318.15 K) was determined as 6.01 ± 0.41; the activity coefficient (328.15 K) was determined as 5.77 ± 0.39; the activity coefficient (338.15 K) was 5.52 ± 0.38; the activity coefficient (348.15 K) came to 5.32 ± 0.36; the activity coefficient (358.15 K) is 5.08 ± 0.35.
In the case of `CCCCCCCC` [octane] + CCCCC[N+]1(C)CCCCC1.O=S(=O)([N-]S(=O)(=O)C(F)(F)F)C(F)(F)F, the activity coefficient was determined as 18.2 ± 1.2 (308.15 K); 16.9 ± 1.2 (318.15 K); 15.9 ± 1.1 (328.15 K); 15.1 ± 1 (338.15 K); 14.4 ± 1 (348.15 K); 13.7 ± 0.9 (358.15 K).
